Data published in ChEMBL document CHEMBL5370541, “Targeting VPS34 in autophagy: An update on pharmacological small-molecule compounds” (Eur J Med Chem, 2023).

What was measured:
[1] = biological target: T1, Phosphatidylinositol 3-kinase catalytic subunit type 3 (Homo sapiens, UniProt Q8NEB9); assay: Inhibition of VPS34 (unknown origin) by ADP hunter plus assay
[2] = system: MCF7; assay: Inhibition of starvation-induced autophagy in human MCF7 cells expressing eGFP-tagged LC3; format: functional, cell-based
[3] = biological target: T1, Phosphatidylinositol 3-kinase catalytic subunit type 3; assay: Binding affinity to VPS34 (unknown origin) assessed as dissociation constant by KINOMEscan analysis
[4] = system: MCF7; assay: Inhibition of rapamycin-induced autophagy in human MCF7 cells expressing eGFP-tagged LC3; format: functional, cell-based

T1 sequence (Q8NEB9 whole entry): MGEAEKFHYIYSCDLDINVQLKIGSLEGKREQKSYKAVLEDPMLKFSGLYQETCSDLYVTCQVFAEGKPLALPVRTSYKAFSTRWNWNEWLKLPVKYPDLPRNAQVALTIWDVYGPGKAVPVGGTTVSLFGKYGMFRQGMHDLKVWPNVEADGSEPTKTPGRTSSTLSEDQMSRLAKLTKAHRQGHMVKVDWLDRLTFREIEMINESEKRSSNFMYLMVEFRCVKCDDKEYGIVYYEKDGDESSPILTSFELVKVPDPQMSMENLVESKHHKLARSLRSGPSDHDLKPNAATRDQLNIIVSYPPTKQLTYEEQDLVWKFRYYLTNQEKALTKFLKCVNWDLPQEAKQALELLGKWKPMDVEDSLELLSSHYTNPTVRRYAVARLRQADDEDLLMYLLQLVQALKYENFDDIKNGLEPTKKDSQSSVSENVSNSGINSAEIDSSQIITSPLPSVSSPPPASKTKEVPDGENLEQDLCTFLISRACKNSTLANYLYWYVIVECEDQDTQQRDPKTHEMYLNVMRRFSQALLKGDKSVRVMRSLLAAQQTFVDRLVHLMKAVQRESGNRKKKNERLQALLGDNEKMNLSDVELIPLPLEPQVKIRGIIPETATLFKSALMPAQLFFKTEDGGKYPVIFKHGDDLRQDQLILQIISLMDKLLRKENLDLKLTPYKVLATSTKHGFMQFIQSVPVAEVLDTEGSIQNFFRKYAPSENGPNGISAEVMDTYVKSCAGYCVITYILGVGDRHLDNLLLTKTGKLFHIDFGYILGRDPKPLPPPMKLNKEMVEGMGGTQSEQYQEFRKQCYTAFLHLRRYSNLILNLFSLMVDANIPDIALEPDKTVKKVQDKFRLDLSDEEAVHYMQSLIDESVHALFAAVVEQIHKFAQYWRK

Row | Structure (SMILES) | IC50 [1] | IC50 [2] | further results
1 | COc1ccc2nccc([C@@H](O)[C@@H]3C[C@@H]4CCN3c3c4[nH]c4nc(Cl)ccc34)c2c1 |  | 8.12 µM | 
2 | COc1ccc2nccc([C@@H](O)[C@@H]3C[C@@H]4CCN3c3c4[nH]c4nc(C(F)(F)F)ccc34)c2c1 |  | 5.82 µM | 
3 | C[C@@H]1COCCN1c1cc(N2CCCC[C@@H]2C(F)(F)F)[nH]c(=O)c1 |  |  | Kd [3]: 0.001 µM
4 | COc1ccc2nccc([C@@H](O)[C@@H]3C[C@@H]4CCN3c3c4[nH]c4nc(C)c(Br)cc34)c2c1 |  | 0.04 µM | IC50 [4]: 0.008 µM

Second part, led by results:

Row | IC50 [1] | Structure (SMILES) | IC50 [2] | further results
5 | 1.51 µM | O=S(=O)(c1ccc(-c2ccnc3[nH]ccc23)cc1)C1CCCC1 |  | 
6 | 0.00912 µM | O=c1cc(N2CCOCC2)nc2n(Cc3cccc(Cl)c3Cl)c(C3CC3)nn12 |  | 
7 | 0.151 µM | O=C1Nc2ccc(-c3cccnc3)cc2C1=Cc1cc(Br)c(O)c(Br)c1 |  | 
